Measured values reported in US20190083457A1, “MITOCHONDRIAL ALDEHYDE DEHYDROGENASE-2 MODULATORS FOR PROTECTING, EXPANDING AND INCREASING THE POTENCY OF HEMATOPOIETIC STEM CELLS” (The Borad of Trustees of the Leland Stanford Junior …, priority 2017, published 2019).
Entries after “also recorded” stand apart in the source; their conditions may differ.

Key:
[1] = Tolerability of chronic Alda-1 administration in vivo; conditions: 10 mg/kg.day continuous subcutaneous infusion, 3 months
Procedure: (§1) Mice (wild-type C57BL/6N were administered with Alda-1 (10 mg/kg.day) or vehicle control (50% DMSO/50% PEG-400) by continuous infusion via subcutaneous osmatic pumps for 3 months.
(§2) Vehicle control and Alda-1 treated mice were then analyzed for HSC functionality. […] With reference to FIG. 1A and FIG. 1B, error bars show standard deviation, significance computed with Student's t-test. *=p≤0.05.

HSC = HSC expansion in mice given Alda-1 by continuous subcutaneous infusion; assay type: in vivo, mice (wild-type C57BL/6N)
Procedure: as §1, §2

HSCs = assay: Competitive repopulation with HSCs from Alda-1 treated and untreated donors; assay type: in vivo, mice; conditions: FIG. 2
From the text: To measure the effects of ALDH2 activation on HSC potency, recipient mice were transplanted with purified HSCs from two donors, one of which had received Alda-1 prior to collection of HSCs for transplant, and another of the same strain which had not received Alda-1 prior to collection for transplant. The two donors were genetically the same except for a difference in the CD45 gene, which allows the blood cells from each to be distinguished from each other and the recipient.
The Alda-1 treated donor had received Alda-1 subcutaneously for 2 months prior to HSC collection. The cells from the treated and untreated donors were mixed together prior to transplant at fixed ratios of 1:3 (25%), 1:1 (50%), or 3:1 (75%). A total of 3000 HSCs were given intravenously to immunodeficient (γc^-/- Kit^W41/W41) mice after low dose irradiation. The polymorphonuclear neutrophils (PMN, aka granulocytes) in each recipient mouse were tested at 6 weeks after transplant to determine what proportion of the PMN were derived from each HSC donor.
With reference to FIG. 2, the X-axis represents percentage of total cells infused which were from Alda-1 treated donor and the Y-axis represents the actual percentage of PMN observed after HSCT to be derived from Alda-1 treated donor. The linear line represents the predicted ratio if there were no difference in the repopulating ability of the HSC cells.

SMILES: O=C(NCc1ccc2c(c1)OCO2)c1c(Cl)cccc1Cl [Alda-1]
- tolerability of chronic administration [1]: well tolerated
- HSC expansion (in words) (HSC; Alda-1 10 mg/kg.day, subcutaneous osmotic pumps, 3 months, vs vehicle control): significant HSC expansion
- increase in (LT)-HSCs (HSC; Alda-1 10 mg/kg.day, subcutaneous osmotic pumps, 3 months, vs vehicle control, FIG. 1A): 4 fold
- increase in (ST)-HSCs (HSC; Alda-1 10 mg/kg.day, subcutaneous osmotic pumps, 3 months, vs vehicle control, FIG. 1B): 2 fold
- long-term mouse HSC (in words) (HSC; FIG. 1A legend): increases long-term mouse HSC
- short-term HSC (in words) (HSC; FIG. 1B legend): increases short-term HSC
- origin of PMN in recipient vs ratio of transplanted cells (HSCs; 6 weeks after transplant, treated:untreated donor cells 1:3, 1:1 or 3:1): more likely to be derived from the Alda-1 treated donor than predicted
- potency / repopulating ability of HSC in recipient (HSCs; donor given Alda-1 subcutaneously for 2 months, 3000 HSCs i.v. to irradiated immunodeficient mice): increased repopulating ability; also recorded: increased the potency of HSC in repopulating recipient
